In patent US10738024B2, “Compounds for treatment of angiogenesis-mediated diseases” (Indiana University Research and Technology Corporation, priority 2013, dated 2020):

Experiments:
[1] = test system: HUVECs; experiment: ALAMARBLUE proliferation assay in HUVECs; type: cell-based, human; conditions: Homo sapiens, HUVEC, 48 h, 50% growth inhibitory concentration, alamarBlue
Description: (§1) Particularly, in a 96-well clear bottom black plate, cells (2,500 cells per well) were seeded in a total volume of 100 μL EGM-2. After 24 hours of incubation of the plate at 37° C. and 5% CO2, a DMSO solution of synthetic cremastranone (1) or SH-11052 (2) was added in the concentration range of 0.5 nM to 500 μM (final DMSO concentration=1%). The plate was then further incubated for 48 hours before adding 11.1 μL of ALAMARBLUE® reagent to each well. Four hours after the addition of ALAMARBLUE®, fluorescence readings with excitation and emission wavelengths of 560 nm and 590 nm, respectively, were taken and the data were analyzed in GraphPad Prism software (v. 6.0). Dose response curves were generated and the GI50 values were calculated using the following equation: Y=100/(1+10^(X−Log GI50)).
(§2) For proliferation assays, cells (2500 per well) were seeded in a 96-well clear bottom black polystyrene plate in a total volume of 100 μL. HUVECs and HRECs were grown in EGM-2 and CSC+ media respectively, while 92-1 and Y79 cells were maintained in RPMI+10% FBS, penicillin/streptomycin and RB medium (IMDM+10% FBS+penicillin/streptomycin+10 μg/mL insulin+55 μM β-mercaptoethanol) respectively. After 24 hours of incubation of the plate at 37° C., the compounds were dissolved in DMSO and added in the concentration range of 500 μM to 0.5 nM. The plate was then incubated at 37° C. and 5% CO2 conditions for 48 hours before adding 11.1 μL of alamar blue reagent for each well. Four hours after the addition of ALAMARBLUE® reagent, fluorescence readings with excitation and emission wavelengths of 560 nm and 590 nm respectively were taken and the data was analyzed in GraphPad Prism software. The dose response curves were generated and the GI50 values were calculated using the equation: Y=100/(1+10^(X−Log GI50)) (Table 1).

[2] = test system: 92-1 uveal melanoma cells; experiment: ALAMARBLUE proliferation assay in 92-1 uveal melanoma cells; type: cell-based; conditions: 50% growth inhibitory concentration, 48 hours, alamarBlue
Description: as §2

[3] = test system: HRECs; experiment: ALAMARBLUE proliferation assay in HRECs; type: cell-based, human; conditions: Homo sapiens, HREC; 50% growth inhibitory concentration, 48 hours, alamarBlue; read-out: GI50 HREC
Description: as §1, §2

[4] = test system: Y-79 retinoblastoma cells; experiment: ALAMARBLUE proliferation assay in Y-79 retinoblastoma cells; type: cell-based; conditions: 50% growth inhibitory concentration, 48 hours
Description: as §2

[5] = test system: HUVECs; conditions: cited from earlier work
[6] = test system: Cdc2 (CDK1); conditions: cited from earlier work
[7] = test system: cyclooxygenases 1 and 2; conditions: purified enzymes; cited from earlier work
[8] = test system: pathogenic neovascularization; conditions: in vivo; cited from earlier work
[9] = test system: prostaglandin synthesis; conditions: microsome assay; cited from earlier work
[10] = test system: p21^WAF1 (CDKN1A); conditions: natural source compound; cited from earlier work
[11] = test system: TNF-α, IL-6 and IL-8; conditions: keratinocytes exposed to UV radiation; cited from earlier work
[12] = test system: choroidal neovascularization; conditions: murine; cited from earlier work
[13] = test system: new vessel growth induced by bFGF; conditions: chick chorioallantoic membrane model; cited from earlier work
[14] = test system: JNK, p38 MAPK, ERK; conditions: keratinocytes exposed to UV radiation; cited from earlier work
[15] = test system: retina; conditions: injection of 10 μM into the vitreous of normal adult mice; cited from earlier work
[16] = test system: NF-κB; conditions: keratinocytes exposed to UV radiation; cited from earlier work
[17] = test system: reactive oxygen species (ROS); conditions: keratinocytes exposed to UV radiation; cited from earlier work

Row | Compound | GI50 [1] [µM] | GI50 [2] [µM] | GI50 [3] [µM] | GI50 [4] [µM] | other results
1 | COc1ccc(/C=C2\COc3cc(OC)c(OC)c(O)c3C2=O)cc1O [Compound 11q] | 5.4 | 11 | 7 | 6 | 
2 | COC(=O)c1cc(/C=C2\COc3cc(OC)c(OC)c(OC)c3C2=O)ccc1OC [Compound 11r] | 3.2 | > 100 | 5.5 | 6 | 
3 | COc1ccc(/C=C2\COc3cc(OC)c(OC)c(OC)c3C2=O)cc1F [Compound 11s] | 7.6 | 7 | 3.2 | 10 | 
4 | COc1cc2c(c(OC)c1OC)C(=O)/C(=C/c1ccc(OCc3ccccc3)c(OCc3ccccc3)c1)CO2 [Compound 11t] | 64 | > 250 | 160 | 109 | 
5 | COc1cc(/C=C2\COc3cc(OC)c(OC)c(OC)c3C2=O)cc(OC)c1OC [Compound 11u] | 10.4 | > 250 | 16.6 | 9 | 
6 | COc1cc2c(c(OC)c1OC)C(=O)/C(=C/c1cccc(Cl)c1Cl)CO2 [Compound 11v] | 10.4 | 31 | 25.6 | 18 | 
7 | COc1ccc(/C=C2\COc3cc(OC)c(OC)c(OC)c3C2=O)c(OC)c1OC [Compound 11w] | 45 | > 250 | 91 | 154 | 
8 | COc1cc2c(c(OC)c1OC)C(=O)/C(=C/c1ccccc1[N+](=O)[O-])CO2 [Compound 11x] | 9 | 29 | 8.6 | 8 | 
9 | COc1ccc(/C=C2\CCOc3cc(OC)c(OC)c(OC)c3C2=O)cc1O [Compound 12, (E)-4-(3-hydroxy-4-methoxybenzylidene)-6,7,8-trimethoxy-3,4-dihydrobenzo[b]oxepin-5(2H)-one] | 30 | 145 | 35 | 33 | 
10 | COc1ccc(/C=C2\Cc3cc(OC)c(OC)c(OC)c3C2=O)cc1O [Compound 13, (E)-2-(3-hydroxy-4-methoxybenzylidene)-5,6,7-trimethoxy-2,3-dihydro-1H-inden-1-one] | 19 | 80 | 30 | 49 | 
11 | COc1ccc(CN2CCc3cc(OC)c(OC)c(OC)c3C2=O)cc1OCc1ccccc1 [Compound 14, 2-(3-(Benzyloxy)-4-methoxybenzyl)-6,7,8-trimethoxy-3,4-dihydroisoquinolin-1(2H)-one] | 71 | 6 | 103 | > 500 | 
12 | COc1cc(OC)c2c(c1)OC/C(=C\c1ccc(OC)c(O)c1)C2=O [Compound 15a] | 17.7 | 78.5 | 37 | 13.5 | 
13 | COc1cc(OC)c2c(c1)OCC(Cc1ccc(OC)c(O)c1)C2=O (stereo not shown) [Compound 15b] | 6.8 | > 250 | 1.6 | 4.2 | 
14 | COc1ccc(CC2COc3cc(O)c(OC)c(O)c3C2=O)cc1O (stereo not shown) [cremastranone, 5,7-dihydroxy-3-(3-hydroxy-4-methoxybenzyl)-6-methoxychroman-4-one] |  |  |  |  | 50% growth inhibitory (GI50) concentration value in HUVEC proliferation assay ([5]; reported for compound isolated from C. appendiculata): low micromolar range; proliferation of HUVECs ([5]; via G2/M phase cell cycle arrest): blockade of the proliferation; expression of Cdc2 (CDK1) [6]: down-regulated; function of cyclooxygenases 1 and 2 [7]: without marked effects; blocking pathogenic neovascularization, oxygen-induced retinopathy model [8]: showed efficacy; prostaglandin synthesis from arachidonic acid [9]: blocked prostaglandin synthesis; expression of p21^WAF1 (CDKN1A) [10]: induces expression; production of cytokines TNF-α, IL-6 and IL-8 [11]: blocked; blocking pathogenic neovascularization, laser photocoagulation model of choroidal neovascularization [12]: showed efficacy; blocking new vessel growth induced by bFGF [13]: as effective as retinoic acid; phosphorylation of MAPKs (JNK, p38, ERK) [14]: decreased phosphorylation; apoptosis of retinal cells [15]: nor did it induce apoptosis; cytotoxic or inflammatory effects on the retina [15]: no cytotoxic or inflammatory effects; nuclear translocation of NF-κB [16]: blocked nuclear translocation; production of reactive oxygen species (ROS) [17]: blocked
